Experimental data from patent US9062124B2, “GIP-based mixed agonists for treatment of metabolic disorders and obesity” (priority 2008, dated 2015).
Where two headings read alike, the source gives them in different places. Where a SMILES comes first, the peptide text is derived from it. Bridges are numbered along the chain shown (N, C = ends). Where no end group is shown, it is not given here. [ ]: non-standard residue; d: D form. The star is where a group is joined. PEG 40 kDa = PEG (40 kDa) covalently attached to Cys; Stearoyl = CCCCCCCCCCCCCCCCCC(=O)*; Myristoyl = CCCCCCCCCCCCCC(=O)*; Aib = CC(C)(N)C(=O)O

Tests used:
Type in all cases: cell-based
glucagon receptor = target: T1, glucagon receptor (Homo sapiens, UniProt P47871); test: cAMP synthesis functional assay (firefly luciferase reporter in HEK293 cells), glucagon receptor
T1 construct: expressed in transfected cells; host or cells: HEK293
T1 sequence (P47871 26-477): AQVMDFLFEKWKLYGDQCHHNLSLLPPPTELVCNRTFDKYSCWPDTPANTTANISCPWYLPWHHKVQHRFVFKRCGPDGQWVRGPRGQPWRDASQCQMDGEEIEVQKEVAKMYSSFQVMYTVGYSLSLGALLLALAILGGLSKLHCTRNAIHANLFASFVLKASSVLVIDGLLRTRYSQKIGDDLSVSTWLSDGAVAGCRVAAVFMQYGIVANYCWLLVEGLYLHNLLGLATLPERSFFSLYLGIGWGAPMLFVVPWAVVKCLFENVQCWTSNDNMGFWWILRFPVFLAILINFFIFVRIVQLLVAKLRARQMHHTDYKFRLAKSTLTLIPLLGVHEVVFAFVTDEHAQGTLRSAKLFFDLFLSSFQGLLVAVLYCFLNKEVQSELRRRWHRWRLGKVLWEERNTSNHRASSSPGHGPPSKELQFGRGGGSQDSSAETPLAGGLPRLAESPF

GLP-1 receptor = target: T2, GLP-1 receptor (Homo sapiens, UniProt P43220); test: cAMP synthesis functional assay (firefly luciferase reporter in HEK293 cells), GLP-1 receptor
T2 construct: expressed in transfected cells; host or cells: HEK293
T2 sequence (P43220 24-463, species assumed): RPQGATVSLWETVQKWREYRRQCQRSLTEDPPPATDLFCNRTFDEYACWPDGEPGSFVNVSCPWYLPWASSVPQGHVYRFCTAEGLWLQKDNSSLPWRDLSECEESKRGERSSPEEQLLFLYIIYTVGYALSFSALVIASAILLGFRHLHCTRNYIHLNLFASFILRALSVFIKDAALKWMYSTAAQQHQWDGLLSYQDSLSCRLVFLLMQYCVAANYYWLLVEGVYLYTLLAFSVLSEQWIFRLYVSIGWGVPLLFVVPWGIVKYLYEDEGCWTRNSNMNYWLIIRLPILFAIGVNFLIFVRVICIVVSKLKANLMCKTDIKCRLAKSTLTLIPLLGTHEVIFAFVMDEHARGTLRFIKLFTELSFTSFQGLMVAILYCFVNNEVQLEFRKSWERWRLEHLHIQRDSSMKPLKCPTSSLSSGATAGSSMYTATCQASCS

GIP receptor = target: T3, GIP receptor (Homo sapiens, UniProt P48546); test: cAMP synthesis functional assay (firefly luciferase reporter in HEK293 cells), GIP receptor
T3 construct: expressed in transfected cells; host or cells: HEK293
T3 sequence (P48546 22-466): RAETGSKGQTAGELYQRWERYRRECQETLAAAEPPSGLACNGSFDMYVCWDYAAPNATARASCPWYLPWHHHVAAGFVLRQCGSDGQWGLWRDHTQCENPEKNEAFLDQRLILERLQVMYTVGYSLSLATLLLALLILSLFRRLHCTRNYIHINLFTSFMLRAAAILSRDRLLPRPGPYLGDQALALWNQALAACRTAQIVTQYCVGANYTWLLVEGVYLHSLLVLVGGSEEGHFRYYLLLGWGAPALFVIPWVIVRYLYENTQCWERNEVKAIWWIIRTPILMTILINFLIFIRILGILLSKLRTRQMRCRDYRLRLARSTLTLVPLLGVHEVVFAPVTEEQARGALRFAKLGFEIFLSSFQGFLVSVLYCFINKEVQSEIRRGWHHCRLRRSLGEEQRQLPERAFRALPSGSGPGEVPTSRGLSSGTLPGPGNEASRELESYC

[1] = Table 1, relative to the native hormone of the indicated receptor
[2] = Glucagon Receptor EC50, cAMP luciferase reporter assay as in Example 16
[3] = relative to the standard (Std.) EC50 of the same run
[4] = GLP-1 Receptor EC50, cAMP luciferase reporter assay as in Example 16

EC50 (glucagon receptor; [2]) [nM]	Glucagon Receptor relative activity (glucagon receptor; [3]) [%]	GLP-1 Receptor relative activity (GLP-1 receptor; [3]) [%]	GIP Receptor relative activity (GIP receptor; [3]) [%]	Molecule	Glucagon Receptor relative activity (glucagon receptor; [1]) [%]	GLP-1 Receptor relative activity (GLP-1 receptor; [1]) [%]	GIP Receptor relative activity (GIP receptor; [1]) [%]	other results
–	–	–	–	CC[C@H](C)[C@H](NC(=O)[C@H](Cc1ccccc1)NC(=O)[C@H](CCC(=O)O)NC(=O)[C@@H]1CCCCNC(=O)CC[C@H](NC(=O)[C@H](CC(=O)O)NC(=O)[C@H](CC(C)C)NC(=O)[C@H](Cc2ccc(O)cc2)NC(=O)[C@@H](NC(=O)[C@H](CO)NC(=O)[C@H](Cc2ccc(O)cc2)NC(=O)[C@H](CC(=O)O)NC(=O)[C@H](CO)NC(=O)[C@@H](NC(=O)[C@H](Cc2ccccc2)NC(=O)[C@@H](NC(=O)CNC(=O)[C@H](CCC(N)=O)NC(=O)[C@H](CO)NC(=O)[C@@H](N)Cc2c[nH]cn2)[C@@H](C)O)[C@@H](C)O)[C@@H](C)CC)C(=O)N[C@@H]([C@@H](C)CC)C(=O)N[C@@H](Cc2c[nH]cn2)C(=O)N[C@@H](CCC(N)=O)C(=O)N1)C(=O)N[C@@H](C)C(=O)N[C@@H](Cc1c[nH]c2ccccc12)C(=O)N[C@@H](CC(C)C)C(=O)N[C@@H](CCSC)C(=O)N[C@@H](CC(N)=O)C(=O)N[C@H](C(N)=O)[C@@H](C)O [mt-62] (H-HSQGTFTSDYSIYLDEIHQKEFIAWLMNT-NH2; lactam 16-20; N-terminus assumed)	42.22	40.00	1.60	EC50 (glucagon receptor; Glucagon Receptor EC50, nM, Table 1): 0.45 nM
4.17	0.69	38.06	54.84	CCCCCCCCCCCCCCCCCC(=O)NCCCC[C@H](NC(=O)[C@H](CC(=O)O)NC(=O)[C@H](CO)NC(=O)[C@@H](NC(=O)[C@H](Cc1ccccc1)NC(=O)[C@@H](NC(=O)CNC(=O)[C@H](CCC(=O)O)NC(=O)C(C)(C)NC(=O)[C@@H](N)Cc1ccc(O)cc1)[C@@H](C)O)[C@@H](C)O)C(=O)N[C@@H](CO)C(=O)N[C@H](C(=O)N[C@@H](Cc1ccc(O)cc1)C(=O)N[C@@H](CC(C)C)C(=O)N[C@@H](CC(=O)O)C(=O)N[C@@H](CCCCN)C(=O)N[C@@H](CCC(N)=O)C(=O)N[C@@H](C)C(=O)N[C@@H](C)C(=O)NC(C)(C)C(=O)N[C@@H](CCC(=O)O)C(=O)N[C@@H](Cc1ccccc1)C(=O)N[C@H](C(=O)N[C@@H](CC(N)=O)C(=O)N[C@@H](Cc1c[nH]c2ccccc12)C(=O)N[C@@H](CC(C)C)C(=O)N[C@@H](CC(C)C)C(=O)N[C@@H](C)C(=O)NCC(N)=O)C(C)C)[C@@H](C)CC [mt-284] (H-Y[Aib]EGTFTSDK(Stearoyl)SIYLDKQAA[Aib]EFVNWLLAG-NH2; N-terminus assumed)	–	–	–	EC50 (GLP-1 receptor; [4]): 0.0155 nM
–	–	–	–	CC[C@H](C)[C@H](NC(=O)[C@H](CO)NC(=O)[C@H](Cc1ccc(O)cc1)NC(=O)[C@H](CC(=O)O)NC(=O)[C@H](CO)NC(=O)[C@@H](NC(=O)[C@H](Cc1ccccc1)NC(=O)[C@@H](NC(=O)CNC(=O)[C@H](CCC(N)=O)NC(=O)[C@H](CO)NC(=O)[C@@H](N)Cc1ccc(O)cc1)[C@@H](C)O)[C@@H](C)O)C(=O)N[C@@H](Cc1ccc(O)cc1)C(=O)N[C@@H](CC(C)C)C(=O)N[C@@H](CC(=O)O)C(=O)N[C@@H](CCC(=O)O)C(=O)N[C@@H](CCC(N)=O)C(=O)N[C@@H](C)C(=O)N[C@@H](C)C(=O)N[C@H]1CCCCNC(=O)CC[C@@H](C(=O)N[C@@H](Cc2c[nH]c3ccccc23)C(=O)N[C@@H](CC(C)C)C(=O)N[C@@H](CC(C)C)C(=O)N[C@@H](C)C(=O)NCC(=O)NCC(=O)N2CCC[C@H]2C(=O)N[C@@H](CO)C(=O)N[C@@H](CO)C(=O)NCC(=O)N[C@@H](C)C(=O)N2CCC[C@H]2C(=O)N2CCC[C@H]2C(=O)N2CCC[C@H]2C(=O)N[C@@H](CO)C(N)=O)NC(=O)[C@H](C(C)C)NC(=O)[C@H](Cc2ccccc2)NC(=O)[C@H](CCC(=O)O)NC1=O [mt-156] (H-YSQGTFTSDYSIYLDEQAAKEFVEWLLAGGPSSGAPPPS-NH2; lactam 20-24; N-terminus assumed)	6.10	12.20	4.41	–
2.44	1.18	44.03	76.69	CCCCCCCCCCCCCC(=O)NCCCC[C@H](NC(=O)[C@H](CC(=O)O)NC(=O)[C@H](CO)NC(=O)[C@@H](NC(=O)[C@H](Cc1ccccc1)NC(=O)[C@@H](NC(=O)CNC(=O)[C@H](CCC(=O)O)NC(=O)C(C)(C)NC(=O)[C@@H](N)Cc1ccc(O)cc1)[C@@H](C)O)[C@@H](C)O)C(=O)N[C@@H](CO)C(=O)N[C@H](C(=O)N[C@@H](Cc1ccc(O)cc1)C(=O)N[C@@H](CC(C)C)C(=O)N[C@@H](CC(=O)O)C(=O)N[C@@H](CCCCN)C(=O)N[C@@H](CCC(N)=O)C(=O)N[C@@H](C)C(=O)N[C@@H](C)C(=O)NC(C)(C)C(=O)N[C@@H](CCC(=O)O)C(=O)N[C@@H](Cc1ccccc1)C(=O)N[C@H](C(=O)N[C@@H](CC(N)=O)C(=O)N[C@@H](Cc1c[nH]c2ccccc12)C(=O)N[C@@H](CC(C)C)C(=O)N[C@@H](CC(C)C)C(=O)N[C@@H](C)C(=O)NCC(N)=O)C(C)C)[C@@H](C)CC [mt-282] (H-Y[Aib]EGTFTSDK(Myristoyl)SIYLDKQAA[Aib]EFVNWLLAG-NH2; N-terminus assumed)	–	–	–	EC50 (GLP-1 receptor; [4]): 0.0134 nM
–	–	–	–	CC[C@H](C)[C@H](NC(=O)[C@H](CO)NC(=O)[C@H](Cc1ccc(O)cc1)NC(=O)[C@H](CC(=O)O)NC(=O)[C@H](CO)NC(=O)[C@@H](NC(=O)[C@H](Cc1ccccc1)NC(=O)[C@@H](NC(=O)CNC(=O)[C@H](CCC(N)=O)NC(=O)[C@H](CO)NC(=O)[C@@H](N)Cc1ccc(O)cc1)[C@@H](C)O)[C@@H](C)CC)C(=O)N[C@@H](Cc1ccc(O)cc1)C(=O)N[C@@H](CC(C)C)C(=O)N[C@@H](CC(=O)O)C(=O)N[C@H]1CCC(=O)NCCCC[C@@H](C(=O)N[C@@H](CCC(=O)O)C(=O)N[C@@H](Cc2ccccc2)C(=O)N[C@H](C(=O)N[C@@H](CC(N)=O)C(=O)N[C@@H](Cc2c[nH]c3ccccc23)C(=O)N[C@@H](CC(C)C)C(=O)N[C@@H](CC(C)C)C(=O)N[C@@H](C)C(=O)NCC(=O)NCC(=O)N2CCC[C@H]2C(=O)N[C@@H](CO)C(=O)N[C@@H](CO)C(=O)NCC(=O)N[C@@H](C)C(=O)N2CCC[C@H]2C(=O)N2CCC[C@H]2C(=O)N2CCC[C@H]2C(=O)N[C@@H](CO)C(N)=O)C(C)C)NC(=O)[C@H](C)NC(=O)[C@H](C)NC(=O)[C@H](CCC(N)=O)NC1=O [mt-150] (H-YSQGTFISDYSIYLDEQAAKEFVNWLLAGGPSSGAPPPS-NH2; lactam 16-20; N-terminus assumed)	316.67	1.09	26.72	–
–	–	–	–	CC[C@H](C)[C@@H]1NC(=O)[C@@H](NC(=O)[C@H](CC(=O)O)NC(=O)[C@H](CC(C)C)NC(=O)[C@H](Cc2ccc(O)cc2)NC(=O)[C@H](CCCCN)NC(=O)[C@H](CO)NC(=O)[C@H](Cc2ccc(O)cc2)NC(=O)[C@H](CC(=O)O)NC(=O)[C@H](CO)NC(=O)[C@@H](NC(=O)[C@H](Cc2ccccc2)NC(=O)[C@@H](NC(=O)CNC(=O)[C@H](CCC(N)=O)NC(=O)[C@H](CO)NC(=O)[C@@H](N)Cc2ccc(O)cc2)[C@@H](C)O)[C@@H](C)O)CCC(=O)NCCCC[C@@H](C(=O)N[C@@H](CCC(=O)O)C(=O)N[C@@H](Cc2ccccc2)C(=O)N[C@H](C(=O)N[C@@H](CC(N)=O)C(=O)N[C@@H](Cc2c[nH]c3ccccc23)C(=O)N[C@@H](CC(C)C)C(=O)N[C@@H](CC(C)C)C(=O)N[C@@H](C)C(=O)N[C@@H](CCC(N)=O)C(N)=O)C(C)C)NC(=O)[C@H](CCC(N)=O)NC(=O)[C@H](Cc2c[nH]cn2)NC1=O [mt-118] (H-YSQGTFTSDYSKYLDEIHQKEFVNWLLAQ-NH2; lactam 16-20; N-terminus assumed)	125.00	2.34	6.39	–
–	–	–	–	mt-205: glucagon analog peptide, C-terminal amide (Y[Aib]EGTFTSDYSIYLDEQAAKEFVNWLLAGRPSSGAPPPSC(PEG 40 kDa)-NH2; lactam 16-20)	0.01	14.22	1.74	EC50 (glucagon receptor; read-out: Glucagon Receptor EC50, Table 1): 672 nM; EC50 (GLP-1 receptor; read-out: GLP-1 Receptor EC50, Table 1): 0.204 nM; EC50 (GIP receptor; read-out: GIP Receptor EC50, Table 1): 1.66 nM

Molecule	EC50 (glucagon receptor; [2]) [nM]	Glucagon Receptor relative activity (glucagon receptor; [3]) [%]	GLP-1 Receptor relative activity (GLP-1 receptor; [3]) [%]	GIP Receptor relative activity (GIP receptor; [3]) [%]	Glucagon Receptor relative activity (glucagon receptor; [1]) [%]	GLP-1 Receptor relative activity (GLP-1 receptor; [1]) [%]	GIP Receptor relative activity (GIP receptor; [1]) [%]	other results
CC[C@H](C)[C@H](NC(=O)[C@H](CO)NC(=O)[C@H](Cc1ccc(O)cc1)NC(=O)[C@H](CC(=O)O)NC(=O)[C@H](CO)NC(=O)[C@@H](NC(=O)[C@H](Cc1ccccc1)NC(=O)[C@@H](NC(=O)CNC(=O)[C@H](CCC(=O)O)NC(=O)C(C)(C)NC(=O)[C@@H](N)Cc1ccc(O)cc1)[C@@H](C)O)[C@@H](C)O)C(=O)N[C@@H](Cc1ccc(O)cc1)C(=O)N[C@@H](CC(C)C)C(=O)N[C@@H](CC(=O)O)C(=O)N[C@@H](CCCCN)C(=O)N[C@@H](CCC(N)=O)C(=O)N[C@@H](C)C(=O)N[C@@H](C)C(=O)NC(C)(C)C(=O)N[C@@H](CCC(=O)O)C(=O)N[C@@H](Cc1ccccc1)C(=O)N[C@H](C(=O)N[C@@H](CS)C(=O)N[C@@H](Cc1c[nH]c2ccccc12)C(=O)N[C@@H](CC(C)C)C(=O)N[C@@H](CC(C)C)C(=O)N[C@@H](C)C(=O)NCC(=O)NCC(=O)N1CCC[C@H]1C(=O)N[C@@H](CO)C(=O)N[C@@H](CO)C(=O)NCC(=O)N[C@@H](C)C(=O)N1CCC[C@H]1C(=O)N1CCC[C@H]1C(=O)N1CCC[C@H]1C(=O)N[C@@H](CO)C(=O)N[C@@H](CCCCN)C(N)=O)C(C)C [mt-308]	12.2	0.39	68.35	285.96	–	–	–	EC50 (GIP receptor; GIP Receptor EC50, cAMP luciferase reporter assay as in Example 16): 0.0057 nM
